{
  "source": "patent US20240415828A1",
  "about": "“TLR7 AGONIST AND COMBINATIONS FOR CANCER TREATMENT” (BIONTECH SE, priority 2021, published 2024)",
  "key": {"solid tumor": {"system": "solid tumor", "assay": "Clinical trial Part 1A, BNT411 monotherapy dose escalation", "format": "in vivo, human", "description": "FIG. 8. Release of certain cytokines from preparations obtained from whole blood of human patients treated with BNT411 at various dose levels. Mean maximum fold change (+SD) calculated from the highest cytokine value observed on day 1 in treatment cycle 1 relative to baseline. IFNα and IL-6 peaked 4 to 8 hours after treatment, IP-10 and TNFa peaked 2.5 to 8 hours after treatment.\nTo this end, a trial was designed to assess the safety profile of BNT411 in monotherapy and in combination with atezolizumab, etoposide, and carboplatin (atezo/EC) and to determine the maximum tolerated dose/recommended phase 2 dose (MTD/RP2D). This trial comprised two parts (1A and 1B) with dose escalation, wherein the patients of part 1A received BNT411 monotherapy and patients of part 1B received BNT411 together with atezolizumab, etoposide, and carboplatin. The patients had solid tumor (preferably ES-SCLC for part 1B) and received the drugs according to the following dosing schedule (until disease progression, unacceptable toxicity, or death): • Part 1A: 3-week cycles, BNT411 i.v. Q1W for 4 cycles, then Q3W • Part 1B: 3-week cycles, BNT411 i.v. Q1W for 4 cycles, then Q3W; atezo/EC Q3W\nDL1-DL3 of Part 1A were single-patient cohorts, all other dose levels were 3+3 cohorts.\nEfficacy was assessed by CT/MRI imaging according to RECIST 1.1 and iRECIST every 6 weeks for 48 weeks, and every 12 weeks thereafter. Safety was assessed by physical examination, vital signs, electrocardiogram, clinical laboratory assessments, eye examinations, ECOG, pregnancy testing, and ECHO/MUGA. Biomarker assessments included tumor biopsies and blood sampling for cytokine analysis, immune phenotyping, tumor mutational burden, and TCR profiling.\nAs of Aug. 26, 2021, the patients were located in seven trial centers (UK, USA, Spain, Germany). Twenty-five patients were screened (Part 1A: 22; Part 1B: 3) with seven screen failures (all Part 1A). Eighteen patients enrolled (Part 1A: 15; Part 1B: 3), wherein fifteen patients were evaluable (Part 1A: 12; Part 1B: 3). Two Part 1A patients were replaced (at DL1 due to incorrect dosing and at DL5 due to PD before DLT evaluation completed). One Part 1A patient dropped out of trial before receiving treatment.\nThe trial population consists of histologically confirmed solid tumor patients with metastatic or unresectable disease for which there is no available standard therapy likely to confer clinical benefit, or patients who are not candidates for such available therapy."}, "[1]": {"system": "CT26 colon carcinoma cells", "assay": "CT26 tumor model, BNT411 alone (Example 3)", "format": "in vivo, mouse", "description": "FIG. 4. Anti-tumoral efficacy of BNT411 alone in a tumor mouse model. Mice (n=12 or 13 per group) subcutaneously inoculated with 5×10^5 CT26 colon carcinoma cells were used as tumor mouse model. BNT411 was administered i.v. at a dose level of 3 mg/kg eight times with 4 to 5 days interval (on days 14, 19, 23, 28, 33, 37, 42, and 47). A control group (n=13) received vehicle alone. Adaptive immunity was evaluated by analyzing gp70-antigen-specific T cell populations in blood and splenocytes 3 and 5 weeks after the first study drug administration. (A) Dosing schedule. (B) Graph showing the tumor volumes vs. days after inoculation. Group mean tumor volumes for all live animals are shown. Additionally, tumor volumes of animals that were euthanized due to tumor load were carried forward for as long as they were larger than the group median tumor volume (SEM: standard error of the mean; LOCF: last observation carried forward values).\nSerum levels of IFNα were measured by sandwich ELISA (Pbl Assay Systems) according to manufacturer's instructions.\nBALB/c mice were inoculated s.c. with 2.5×10^5−5×10^5 CT26-WT into the flank, respectively. Once tumors reached palpable sizes, mice were randomly divided into treatment and control groups. Tumor volume was measured unblinded with a caliper and calculated using the formula (a×b^2)/2 (a being the largest and b being the smallest diameter of the tumor). Tumor growth was documented as mean tumor size with standard error disregarding single distant outliers. Treatment was initiated after 7-10 d with tumors having reached an average volume of about 10 mm^3. 3 mg/kg (75 μg/mouse; BALB/c mice) BNT411 was administered by i.v. injection to the retro-orbital venous plexus. Control groups received an equal volume of 100 μl saline vehicle (0.1% 1 M HCl, 0.1% 1 M NaOH, 99.8% isotonic NaCl solution pH 5.63).\nEight doses of BNT411 were administered i.v. at a dose level of 3 mg/kg eight times with 4 to 5 days interval (on days 14, 19, 23, 28, 33, 37, 42, and 47); cf., FIG. 4A. […] A control group (n=13) received vehicle alone. Adaptive immunity was evaluated by analyzing gp70-antigen-specific T cell populations in blood and splenocytes 3 and 5 weeks after the first study drug administration. Gp70 is the immune dominant CD8^+ T-cell recognized antigen of the CT26 tumor model."}, "[2]": {"conditions": "Part 1A, patients (%), as of Aug. 26, 2021"}, "[3]": {"conditions": "Part 1A, patients, as of Aug. 26, 2021"}},
  "data": [
    {"smiles": "COCCc1nc2c(N)nc3ccccc3c2n1CCCCN(C(C)=O)C1CCOCC1", "note": "[BNT411]", "values": [
      {"measurement": "cytokine changes", "setting": "solid tumor; DL1A, DL2A, or DL3A (0.05-0.45 μg/kg)", "value": "No meaningful cytokine changes"},
      {"measurement": "induction of IFN-a and IP-10", "setting": "solid tumor; DL5 onwards, substantially starting at DL6, data update October 2022", "value": "increased"},
      {"measurement": "IL-6 induction", "setting": "solid tumor; DL6A", "value": "some increase"},
      {"measurement": "IP-10 level relative to assay range", "setting": "solid tumor; DL6A", "value": "upper limit of detection of the assay was reached"},
      {"measurement": "induction of IFNa, IP-10, and other mode-of-action relevant cytokines", "setting": "solid tumor; DL6A (4.8 μg/kg)", "value": "substantial induction"},
      {"measurement": "tumor response (RECIST 1.1), third patient", "setting": "solid tumor; DL7, trial Day 251, still on treatment", "value": "partial response"},
      {"measurement": "dose limiting toxicity (DLT), or related grade 4-5 AEs", "setting": "solid tumor; Part 1A", "value": "no"},
      {"measurement": "TEAEs related to BNT411 monotherapy: Anaemia, Grade 4", "setting": "solid tumor; [2]", "value": "2 (13%)"},
      {"measurement": "TEAEs related to BNT411 monotherapy: Blood bilirubin increased, Grade 4", "setting": "solid tumor; [2]", "value": "1 (7%)"},
      {"measurement": "TEAEs related to BNT411 monotherapy: Chills, Grade 4", "setting": "solid tumor; [2]", "value": "2 (13%)"},
      {"measurement": "TEAEs related to BNT411 monotherapy: Diarrhoea, Grade 4", "setting": "solid tumor; [2]", "value": "1 (7%)"},
      {"measurement": "TEAEs related to BNT411 monotherapy: Fatigue, Grade 4", "setting": "solid tumor; [2]", "value": "1 (7%)"},
      {"measurement": "TEAEs related to BNT411 monotherapy: Headache, Grade 4", "setting": "solid tumor; [2]", "value": "1 (7%)"},
      {"measurement": "TEAEs related to BNT411 monotherapy: Hyperbilirubinaemia, Grade 4", "setting": "solid tumor; [2]", "value": "1 (7%)"},
      {"measurement": "TEAEs related to BNT411 monotherapy: Hypotension, Grade 4", "setting": "solid tumor; [2]", "value": "1 (7%)"},
      {"measurement": "TEAEs related to BNT411 monotherapy: Illness, Grade 4", "setting": "solid tumor; [2]", "value": "1 (7%)"},
      {"measurement": "TEAEs related to BNT411 monotherapy: Infusion related reaction, Grade 4", "setting": "solid tumor; [2]", "value": "1 (7%)"},
      {"measurement": "TEAEs related to BNT411 monotherapy: Nausea, Grade 4", "setting": "solid tumor; [2]", "value": "1 (7%)"},
      {"measurement": "TEAEs related to BNT411 monotherapy: Neutropenia, Grade 4", "setting": "solid tumor; [2]", "value": "1 (7%)"},
      {"measurement": "TEAEs related to BNT411 monotherapy: Pruritus, Grade 4", "setting": "solid tumor; [2]", "value": "1 (7%)"},
      {"measurement": "TEAEs related to BNT411 monotherapy: Pyrexia, Grade 4", "setting": "solid tumor; [2]", "value": "3 (20%)"},
      {"measurement": "TEAEs related to BNT411 monotherapy: Total number of patients with TEAEs, Grade 4", "setting": "solid tumor; [2]", "value": "7 (47%)"},
      {"measurement": "TEAEs related to BNT411 monotherapy: Anaemia, Grade 1", "setting": "solid tumor; [3]", "value": 1},
      {"measurement": "TEAEs related to BNT411 monotherapy: Anaemia, Grade 3", "setting": "solid tumor; [3]", "value": 1},
      {"measurement": "TEAEs related to BNT411 monotherapy: Blood bilirubin increased, Grade 1", "setting": "solid tumor; [3]", "value": 1},
      {"measurement": "TEAEs related to BNT411 monotherapy: Chills, Grade 1", "setting": "solid tumor; [3]", "value": 2},
      {"measurement": "TEAEs related to BNT411 monotherapy: Diarrhoea, Grade 2", "setting": "solid tumor; [3]", "value": 1},
      {"measurement": "TEAEs related to BNT411 monotherapy: Fatigue, Grade 2", "setting": "solid tumor; [3]", "value": 1},
      {"measurement": "TEAEs related to BNT411 monotherapy: Headache, Grade 1", "setting": "solid tumor; [3]", "value": 1},
      {"measurement": "TEAEs related to BNT411 monotherapy: Hyperbilirubinaemia, Grade 1", "setting": "solid tumor; [3]", "value": 1},
      {"measurement": "TEAEs related to BNT411 monotherapy: Hypotension, Grade 1", "setting": "solid tumor; [3]", "value": 1},
      {"measurement": "TEAEs related to BNT411 monotherapy: Illness, Grade 1", "setting": "solid tumor; [3]", "value": 1},
      {"measurement": "TEAEs related to BNT411 monotherapy: Infusion related reaction, Grade 2", "setting": "solid tumor; [3]", "value": 1},
      {"measurement": "TEAEs related to BNT411 monotherapy: Nausea, Grade 1", "setting": "solid tumor; [3]", "value": 1},
      {"measurement": "TEAEs related to BNT411 monotherapy: Neutropenia, Grade 1", "setting": "solid tumor; [3]", "value": 1},
      {"measurement": "TEAEs related to BNT411 monotherapy: Pruritus, Grade 1", "setting": "solid tumor; [3]", "value": 1},
      {"measurement": "TEAEs related to BNT411 monotherapy: Pyrexia, Grade 1", "setting": "solid tumor; [3]", "value": 1},
      {"measurement": "TEAEs related to BNT411 monotherapy: Pyrexia, Grade 2", "setting": "solid tumor; [3]", "value": 2},
      {"measurement": "safety profile", "setting": "solid tumor; all doses tested as of Aug. 26, 2021 (up to DL6)", "value": "acceptable safety profile"},
      {"measurement": "time of IFNa and IL-6 peak after treatment", "setting": "solid tumor; day 1, treatment cycle 1", "value": "4 to 8", "unit": "h"},
      {"measurement": "time of IP-10 and TNFa peak after treatment", "setting": "solid tumor; day 1, treatment cycle 1", "value": "2.5 to 8", "unit": "h"},
      {"measurement": "AEs related to BNT411 monotherapy: chills, share of patients", "setting": "solid tumor; grade 1, Part 1A DL1 and DL6", "value": 13, "unit": "%"},
      {"measurement": "AEs related to BNT411 monotherapy: pyrexia, share of patients", "setting": "solid tumor; grades 1 and 2, Part 1A DLs 1*, 2, and 6", "value": 20, "unit": "%"},
      {"measurement": "AEs related to BNT411 monotherapy: anaemia, share of patients", "setting": "solid tumor; grades 1 and 3, Part 1A DL4 and DL5", "value": 13, "unit": "%"},
      {"measurement": "tumor response (RECIST 1.1), second patient", "setting": "solid tumor; intermediate dose level between DL6 and DL7, as of Day 420", "value": "stable disease"},
      {"measurement": "change in sum of target lesion diameters compared with baseline, second patient", "setting": "solid tumor; intermediate dose level between DL6 and DL7, trial Day 86", "value": "−26.2", "unit": "%"},
      {"measurement": "cytokine release", "setting": "solid tumor; ten patients, DL4A, DL5A, DL6A", "value": "dose-dependent cytokine release"},
      {"measurement": "serious adverse events with a possible causal relationship to BNT411 monotherapy", "setting": "solid tumor; two cases of infusion-related reaction, grades 1 and 2, same patient, Part 1A DL6", "value": "Two"},
      {"measurement": "tumor response (RECIST 1.1), patient started at DL4, increased to DL5 (C8D1) and DL6 (C12D1)", "setting": "solid tumor; until trial Day 449, cutoff Oct. 13, 2022", "value": "stable disease"},
      {"measurement": "overall safety profile", "setting": "solid tumor; up to DL6, data update October 2022", "value": "acceptable overall safety profile"},
      {"measurement": "TNFa induction levels", "setting": "solid tumor; up to DL6A", "value": "remained unchanged"},
      {"measurement": "tumor growth inhibition, test/control value", "setting": "[1]; 3 mg/kg i.v. eight times, day 35", "value": 43.3, "unit": "%"},
      {"measurement": "animals still alive", "setting": "[1]; 3 mg/kg i.v., day 49, last day of the experiment", "value": "8 of 13"},
      {"measurement": "increase in blood IFNα levels compared with the control group", "setting": "[1]; 1 h after the first dosing, 3 mg/kg i.v.", "value": 50, "unit": "fold"},
      {"measurement": "frequency of gp70+ T-cells in blood", "setting": "[1]; day 35", "value": 8.72, "unit": "%"},
      {"measurement": "frequency of gp70+ T-cells in splenocytes", "setting": "[1]; day 50", "value": 0.76, "unit": "%"},
      {"measurement": "blood parameters (alanine transaminase, aspartate transaminase, creatine kinase, glutamate dehydrogenase, lactate dehydrogenase, bilirubin) vs control group", "setting": "[1]; serum, day 19", "value": "comparable"}
    ]}
  ]
}
